ChEMBL document CHEMBL4476878, “Galactokinase inhibitors” (2013)
Active and inactive are the calls of the source.

Legend:
[1] = test system: Geobacillus stearothermophilus; assay: Inhibition of Bacillus stearothermophilus glucokinase
[2] = target: Galactokinase (Homo sapiens) (UniProt P51570); assay: Inhibition of His6-tagged recombinant human GALK expressed in Escherichia coli HMS174 (DE3) incubated for 60 mins using galactose and ATP by Kinase-Glo reagent based assay
Saccharomyces cerevisiae = assay: Inhibition of Saccharomyces cerevisiae hexokinase
[3] = target: T1, 4-diphosphocytidyl-2-C-methyl-D-erythritol kinase (Escherichia coli (strain K12)) (UniProt P62615); assay: Inhibition of purified Escherichia coli CDP-ME kinase IspE expressed in Escherichia coli HMS174 at 10 to 50 uM by luciferase-luciferin based luminescence-based assay
T1 sequence (whole entry): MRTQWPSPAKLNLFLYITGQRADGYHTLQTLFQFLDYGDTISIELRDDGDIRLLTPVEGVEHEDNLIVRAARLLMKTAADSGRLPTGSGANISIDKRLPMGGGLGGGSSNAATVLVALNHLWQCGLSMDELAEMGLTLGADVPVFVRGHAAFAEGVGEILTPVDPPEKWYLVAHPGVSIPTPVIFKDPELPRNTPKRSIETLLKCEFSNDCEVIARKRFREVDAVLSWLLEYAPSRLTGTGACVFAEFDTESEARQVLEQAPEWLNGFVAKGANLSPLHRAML

[4] = target: Galactokinase (Homo sapiens) (UniProt P51570); assay: Inhibition of His6-tagged recombinant human GALK expressed in Escherichia coli HMS174 (DE3) by pyruvate kinase/lactate dehydrogenase-coupled assay
[5] = target: Galactokinase (Homo sapiens) (UniProt P51570); assay: Inhibition of His6-tagged recombinant human GALK expressed in Escherichia coli HMS174 (DE3) at 5 to 15 uM incubated for 60 mins using galactose and ATP by Kinase-Glo reagent based assay

Measured: inhibition

Chain of Galactokinase (Homo sapiens) (P51570 whole entry): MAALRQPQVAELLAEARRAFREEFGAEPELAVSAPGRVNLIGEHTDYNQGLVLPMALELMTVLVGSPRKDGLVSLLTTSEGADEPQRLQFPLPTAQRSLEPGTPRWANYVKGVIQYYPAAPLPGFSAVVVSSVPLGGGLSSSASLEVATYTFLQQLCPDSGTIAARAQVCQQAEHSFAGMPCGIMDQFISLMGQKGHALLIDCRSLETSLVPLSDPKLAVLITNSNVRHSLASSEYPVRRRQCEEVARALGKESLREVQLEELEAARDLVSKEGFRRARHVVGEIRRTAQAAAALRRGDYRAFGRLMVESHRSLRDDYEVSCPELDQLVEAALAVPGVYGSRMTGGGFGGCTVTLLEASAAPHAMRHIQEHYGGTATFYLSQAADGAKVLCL

O=C(NC1(O)C(=O)c2ccccc2C1=O)c1cnn(-c2ccccc2)c1C(F)(F)F
active: [1] | [2] | Saccharomyces cerevisiae

O=C1OC(c2ccccc2)OC(=O)C1=C/C=C/c1ccccc1 (stereo not drawn)
active: [1] | [2] | Saccharomyces cerevisiae

O=C1C=C2N(c3ccccc3)CCOC2(O)c2ccccc21 (stereo not drawn)
active: [1] | [2] | Saccharomyces cerevisiae

Cc1ccc(CSc2nc(C(=O)O)ccc2C#N)cc1
active: [1] | [2] | Saccharomyces cerevisiae

Cn1c(=S)[nH]c2sc3c(c2c1=O)CCC(C(C)(C)C)C3 (stereo not drawn)
active: [1] | [2] | Saccharomyces cerevisiae

CC1(C)CCC2=C(O1)c1ccccc1C(=O)C2=O
active: [1] | [2] | Saccharomyces cerevisiae

O=C1OC2(c3ccccc31)c1cc(I)c(O)c(I)c1Oc1c2cc(I)c(O)c1I
active: [1] | [2] | Saccharomyces cerevisiae

CC1=NOC(=O)/C1=C\c1ccc(-c2ccccc2)o1
active: [1] | [2] | Saccharomyces cerevisiae

O=C1NC(=S)N(c2cccc3ccccc23)C(=O)/C1=C/c1c[nH]c2ccccc12
active: [1] | [2] | Saccharomyces cerevisiae

COc1cc(/C=C2/SC(=S)NC2=O)ccc1OC(=O)c1cccc(C)c1
active: [1] | [2] | Saccharomyces cerevisiae

O=C1NC(=O)N(c2ccccc2)C(=O)/C1=C/c1c2ccccc2cc2ccccc12
active: [1] | [2] | Saccharomyces cerevisiae

N#Cc1c(-c2ccc(Cl)cc2)nc(SCc2ccccc2)[nH]c1=S
active: [1] | [2] | Saccharomyces cerevisiae

CCOc1cccc(NC(=O)C2CC(=O)N(/N=C(\C)c3ccc(Br)s3)C(=N)S2)c1 (stereo not drawn)
active: [1] | [2] | Saccharomyces cerevisiae

O=C1O[C@H](c2ccccc2)[C@H](c2ccccc2)N2[C@H]1[C@@H](C(=O)O)[C@]1(C(=O)Nc3ccc(C#CC4(O)CCCCCC4)cc31)[C@H]2c1ccc(OCCO)cc1
active: [1] | [2] | Saccharomyces cerevisiae

Cc1cc2c(C(C)C)c(O)c(O)c(C=O)c2c(O)c1-c1c(C)cc2c(C(C)C)c(O)c(O)c(C=O)c2c1O
active: [3]

Cc1c(O)c(C(=O)CC(C)C)c2oc3c(C(=O)CC(C)C)c(O)c(C)c(O)c3c2c1O
active: [1] | [2] | Saccharomyces cerevisiae

N#Cc1ccc(CSc2nc(-c3cccs3)c3c(c2C(=O)O)CCCC3)cc1
active: [1] | [2] | Saccharomyces cerevisiae

Oc1c(Cl)cc(Cl)c(Cl)c1Cc1c(O)c(Cl)cc(Cl)c1Cl
active: [1] | [2] | Saccharomyces cerevisiae | [4]

O=C1OC2(CCCC2)OC(=O)C1=Cc1ccc(OCc2ccccc2)cc1
active: [1] | [2] | Saccharomyces cerevisiae

CC1(c2ccccc2)CC(C)(C)N2C(=O)/C(=C3/SC(=O)NC3=O)c3cccc1c32 (stereo not drawn)
active: [1] | [2] | Saccharomyces cerevisiae | [4]

COC1=C(N)C(=O)c2nc(-c3nc(C(=O)O)c(C)c(-c4ccc(OC)c(OC)c4O)c3N)ccc2C1=O
active: [1] | [2] | Saccharomyces cerevisiae | [4]

CC(C)OC1(O)C(=O)c2ccccc2C(=O)C1(O)OC(C)C (stereo not drawn)
active: [1] | [2] | Saccharomyces cerevisiae

O=C1C(NS(=O)(=O)c2ccccc2)=C/C(=N\S(=O)(=O)c2ccc(F)cc2)c2ccccc21
active: [1] | [2] | Saccharomyces cerevisiae

Cc1cccc(OCCOc2ccc(Br)cc2/C=C2\SC(=S)NC2=O)c1
active: [1] | [2] | Saccharomyces cerevisiae

O=C1Nc2ccc(I)cc2/C1=C/c1cc(Br)c(O)c(Br)c1
active: [1] | [2] | Saccharomyces cerevisiae

CCSC1=C(C#N)C(=O)NC(/C=C/c2ccccc2)S1 (stereo not drawn)
active: [1] | [2] | Saccharomyces cerevisiae

Oc1c(Cl)cc(Cl)cc1Sc1cc(Cl)cc(Cl)c1O
active: [1] | [2] | Saccharomyces cerevisiae

Nc1ncnc2c1ncn2[C@@H]1O[C@H](COP(=O)(O)OP(=O)(O)OP(O)(O)=S)[C@@H](O)[C@H]1O
active: [5]

c1ccc(-c2cnc3nonc3n2)cc1
active: [1] | [2] | Saccharomyces cerevisiae

CC1=NN(c2cccc(C(=O)O)c2)C(=O)/C1=C/c1ccc(-c2cccc(Cl)c2C)o1
active: [1] | [2] | Saccharomyces cerevisiae

N#CC1=C(SCc2ccccc2)SC(c2ccccc2O)NC1=O (stereo not drawn)
active: [1] | [2] | Saccharomyces cerevisiae

CC(C)(C)C(=O)Nc1ccc2c(c1)C(=O)C(=O)c1ccccc1-2
active: [1] | [2] | Saccharomyces cerevisiae | [4]

COC(=O)CSC1=C(C#N)C(=O)NC(c2ccccc2O)S1 (stereo not drawn)
active: [1] | [2] | Saccharomyces cerevisiae

Cc1c(N=c2c(=O)c3ccccc3c2=O)c(=O)n(-c2ccccc2)n1C
active: [1] | [2] | Saccharomyces cerevisiae

N#CC1=C(SCc2ccccc2)SC(c2ccc(C(=O)O)cc2)NC1=O (stereo not drawn)
active: [1] | [2] | Saccharomyces cerevisiae

CC(C)(C)c1cc(/C=C2/SC(=S)NC2=O)cc(C(C)(C)C)c1O
active: [1] | [2] | Saccharomyces cerevisiae
